Biological target: T1, angiotensin II receptor (Oryctolagus cuniculus, UniProt P34976)
T1 construct: The aorta was cut into 3~4 mm to form ring samples; from tissue; host or cells: isolated aorta rings of New Zealand White rabbits
T1 sequence (P34976 1-359): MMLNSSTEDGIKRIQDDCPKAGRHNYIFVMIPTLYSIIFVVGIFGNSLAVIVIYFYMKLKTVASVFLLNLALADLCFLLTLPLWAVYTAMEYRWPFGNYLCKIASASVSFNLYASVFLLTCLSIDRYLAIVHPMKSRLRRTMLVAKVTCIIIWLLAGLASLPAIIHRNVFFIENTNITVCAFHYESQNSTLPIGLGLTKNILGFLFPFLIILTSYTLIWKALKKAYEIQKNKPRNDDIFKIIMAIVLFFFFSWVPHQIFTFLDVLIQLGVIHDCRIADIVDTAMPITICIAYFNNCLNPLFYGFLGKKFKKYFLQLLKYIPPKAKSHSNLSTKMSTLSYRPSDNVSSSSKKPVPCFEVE
Assay: inhibition of angiotensin II induced contraction of isolated rabbit aorta rings
Assay type: cell-based, New Zealand White rabbit
Conditions: test compound incubated 20 minutes, 37° C., pH 7.4, read-out: IC50 (concentration being required to inhibit angiotensin II induced contraction by 50%)
Protocol: The antagonistic activity of the representative compounds of the invention was evaluated using the methodology describe below.
From New Zealand White rabbits (male or female, 2~2.5 kg), aorta was isolated, and fat and connected tissue were removed therefrom. The aorta was cut into 3~4 mm to form ring samples. The aorta sample was suspended in 20 ml of organ bath (37° C.) containing modified Krebs-Henseleit solution saturated with 95% O2 /5% CO2 (pH 7.4).
The aorta preparation was exposed consecutively to 2 g of tensile strength for 90 minutes intermittently washing the sample with 30 minutes interval and then to 30 mM of KCl to observe contraction response. After washing more than three times, the aorta preparation was again allowed to contract three times for stabilization by adding Angiotensin II ([…]) thereto with 30 minutes interval. The third contraction response to Angiotensin II was considered as control.
10 minutes after the third contraction, the test compound was administered to the aorta preparation, which was incubated for 20 minutes.
Comparing angiotensin II contraction curve obtained from the above inhibition test with that of the control, IC50 (concentration being required to inhibit angiotensin II induced contraction by 50%) was determined for each test compound(Table 1).

`CCOC(=O)Cc1c(C)nc(CC)n(Cc2ccc(-c3ccccc3-c3nnn[nH]3)cc2)c1=O` [Compound 1, 2-ethyl-5-ethoxycarbonylmethyl-6-methyl-3-[[2'-(1H-tetrazol-5-yl)biphenyl-4-yl]methyl]-pyrimidin-4-(3H)-one] gave an IC50 of 9.05 nM.

`CCc1nc(C)c(CC(=O)O)c(=O)n1Cc1ccc(-c2ccccc2-c2nnn[nH]2)cc1` [Compound 2, 2-ethyl-5-carboxymethyl-6-methyl-3-[[2'-(1H-tetrazol-5-yl)-biphenyl-4-yl]methyl]-pyrimidin-4-(3H)-one] showed an IC50 of 14.2 nM.

`CCc1nc(=O)c(CC(=O)O)c(C)n1Cc1ccc(-c2ccccc2-c2nnn[nH]2)cc1` [Compound 3, 2-ethyl-5-carboxymethyl-6-methyl-1-[[2'-(1H-tetrazol-5-yl)-biphenyl-4-yl]methyl]-pyrimidin-4-(1H)-one] gave an IC50 of 22.3 nM.

Work on `CCc1nc(C)c(CC(=O)N(CC)CC)c(=O)n1Cc1ccc(-c2ccccc2-c2nnn[nH]2)cc1` [Compound 4, 2-ethyl-5-diethylaminocarbonylmethyl-6-methyl-3-[[2'-(1H-tetrazol-5-yl)biphenyl-4-yl]methyl]-pyrimidin-4-(3H)-one] yielded an IC50 of 15.1 nM.

`CCOC(=O)CCc1c(C)nc(CC)n(Cc2ccc(-c3ccccc3-c3nnn[nH]3)cc2)c1=O` [Compound 5, 2-ethyl-5-(2'-ethoxycarbonylethyl)-6-methyl-3-[[2'-(1H-tetrazol-5-yl)biphenyl-4-yl]methyl]-pyrimidin-4-(3H)-one] showed an IC50 of 30.7 nM.

For `CCc1nc(C)c(CCC(=O)O)c(=O)n1Cc1ccc(-c2ccccc2-c2nnn[nH]2)cc1` [Compound 6, 2-ethyl-5-(2'-carboxyethyl)-6-methyl-3-[[2'-(1H-tetrazol-5-yl)-biphenyl-4-yl]methyl]-pyrimidin-4-(3H)-one], the IC50 was 22.7 nM.

Molecule `CCc1nc(=O)c(CCC(=O)O)c(C)n1Cc1ccc(-c2ccccc2-c2nnn[nH]2)cc1` [Compound 7, 2-ethyl-5-(2'-carboxyethyl)-6-methyl-1-[[2'-(1H-tetrazol-5-yl)-biphenyl-4-yl]methyl]-pyrimidin-4-(1H)-one] has an IC50 of 2.84 nM.

In the case of `CCc1nc(C)c(CCC(=O)N(CC)CC)c(=O)n1Cc1ccc(-c2ccccc2-c2nnn[nH]2)cc1` [Compound 8, 2-ethyl-5-(2'-diethylaminocarbonylethyl)-6-methyl-3-[[2'-(1H-tetrazol-5-yl)biphenyl-4-yl]methyl]-pyrimidin-4(3H)-one], the IC50 is reported as 73.6 nM.

`CCCc1nc(C)c(CC(=O)OCC)c(=O)n1Cc1ccc(-c2ccccc2-c2nnn[nH]2)cc1` [Compound 9, 2-n-propyl-5-ethoxycarbonylmethyl-6-methyl-3-[[2'-(1H-tetrazol-5-yl)biphenyl-4-yl]methyl]-pyrimidin-4-(3H)-one] showed an IC50 of 4.35 nM.

`CCCc1nc(C)c(CC(=O)O)c(=O)n1Cc1ccc(-c2ccccc2-c2nnn[nH]2)cc1` [Compound 10, 2-n-propyl-5-carboxymethyl-6-methyl-3-[[2'-(1H-tetrazol-5-yl)-biphenyl-4-yl]methyl]-pyrimidin-4-(3H)-one] gave an IC50 of 37.1 nM.

For `CCCc1nc(=O)c(CC(=O)O)c(C)n1Cc1ccc(-c2ccccc2-c2nnn[nH]2)cc1` [Compound 11, 2-n-propyl-5-carboxymethyl-6-methyl-1-[[2'-(1H-tetrazol-5-yl)-biphenyl-4-yl]methyl]-pyrimidin-4-(1H)-one], the IC50 was 7.71 nM.

In the case of `CCCc1nc(C)c(CC(=O)N(CC)CC)c(=O)n1Cc1ccc(-c2ccccc2-c2nnn[nH]2)cc1` [Compound 12, 2-n-propyl-5-diethylaminocarbonylmethyl-6-methyl-3-[[2'-(1H-tetrazol-5-yl)biphenyl-4-yl]methyl]-pyrimidin-4-(3H)-one], the IC50 is reported as 5.59 nM.

`CCCc1nc(C)c(CCC(=O)OCC)c(=O)n1Cc1ccc(-c2ccccc2-c2nn[nH]n2)cc1` [Compound 13, 2-n-propyl-5-(2'-ethoxycarbonylethyl)-6-methyl-3-[[2'-(1H-tetrazol-5-yl)biphenyl-4-yl]methyl]-pyrimidin-4-(3H)-one] was tested, and the IC50 was 4.99 nM.

Molecule `CCCc1nc(C)c(CCC(=O)O)c(=O)n1Cc1ccc(-c2ccccc2-c2nnn[nH]2)cc1` [Compound 14, 2-n-propyl-5-(2'-carboxyethyl)-6-methyl-3-[[2'-(1H-tetrazol-5-yl)-biphenyl-4-yl]methyl]-pyrimidin-4-(3H)-one] has an IC50 of 7.39 nM.

For `CCCc1nc(=O)c(CCC(=O)O)c(C)n1Cc1ccc(-c2ccccc2-c2nn[nH]n2)cc1` [Compound 15, 2-n-propyl-5-(2'-carboxyethyl)-6-methyl-1-[[2'-(1H-tetrazol-5-yl)-biphenyl-4-yl]methyl]-pyrimidin-4-(1H)-one], the IC50 was 19.4 nM.

`CCCc1nc(C)c(CCC(=O)N(CC)CC)c(=O)n1Cc1ccc(-c2ccccc2-c2nnn[nH]2)cc1` [Compound 16, 2-n-propyl-5-(2'-diethylaminocarbonylethyl)-6-methyl-3-[[2'-(1H-tetrazol-5-yl)biphenyl-4-yl]methyl]-pyrimidin-4-(3H)-one] gave an IC50 of 174 nM.

`CCCCc1nc(C)c(CC(=O)OCC)c(=O)n1Cc1ccc(-c2ccccc2-c2nnn[nH]2)cc1` [Compound 17, 2-n-butyl-5-ethoxycarbonylmethyl-6-methyl-3-[[2'-(1H-tetrazol-5-yl)biphenyl-4-yl]methyl]-pyrimidin-4-(3H)-one] was tested, and the IC50 was 4.63 nM.

`CCCCc1nc(=O)c(CC(=O)OCC)c(C)n1Cc1ccc(-c2ccccc2-c2nnn[nH]2)cc1` [Compound 18, 2-n-butyl-5-ethoxycarbonylmethyl-6-methyl-1-[[2'-(1H-tetrazol-5-yl)biphenyl-4-yl]methyl]-pyrimidin-4-(1H)-one] gave an IC50 of 93.3 nM.

`CCCCc1nc(C)c(CC(=O)O)c(=O)n1Cc1ccc(-c2ccccc2-c2nnn[nH]2)cc1` [Compound 19, 2-n-butyl-5-carboxymethyl-6-methyl-3-[[2'-(1H-tetrazol-5-yl)-biphenyl-4-yl]methyl]-pyrimidin-4-(3H)-one] was tested, and the IC50 was 2.63 nM.

With `CCCCc1nc(=O)c(CC(=O)O)c(C)n1Cc1ccc(-c2ccccc2-c2nnn[nH]2)cc1` [Compound 20, 2-n-butyl-5-carboxymethyl-6-methyl-1-[[2'-(1H-tetrazol-5-yl)-biphenyl-4-yl]methyl]-pyrimidin-4-(1H)-one] the IC50 was 8.53 nM.

Work on `CCCCc1nc(C)c(CC(=O)N(CC)CC)c(=O)n1Cc1ccc(-c2ccccc2-c2nnn[nH]2)cc1` [Compound 21, 2-n-butyl-5-diethylaminocarbonylmethyl-6-methyl-3-[[2'-(1H-tetrazol-5-yl)biphenyl-4-yl]methyl]-pyrimidin-4-(3H)-one] yielded an IC50 of 2.63 nM.

In the case of `CCCCc1nc(C)c(CC(=O)N(C)C)c(=O)n1Cc1ccc(-c2ccccc2-c2nnn[nH]2)cc1` [Compound 22, 2-n-butyl-5-dimethylaminocarbonylmethyl-6-methyl-3-[[2'-(1H-tetrazol-5-yl)biphenyl-4-yl]methyl]-pyrimidin-4-(3H)-one], the IC50 is reported as 2.37 nM.

Molecule `CCCCc1nc(C)c(CCC(=O)OCC)c(=O)n1Cc1ccc(-c2ccccc2-c2nnn[nH]2)cc1` [Compound 23, 2-n-butyl-5-(2'-ethoxycarbonylethyl) -6-methyl-3-[[2'-(1H-tetrazol-5-yl)biphenyl-4-yl]methyl]-pyrimidin-4-(3H)-one] has an IC50 of 3.5 nM.

For `CCCCc1nc(=O)c(CCC(=O)OCC)c(C)n1Cc1ccc(-c2ccccc2-c2nnn[nH]2)cc1` [Compound 24, 2-n-butyl-5-(2'-ethoxycarbonylethyl)-6-methyl-1-[[2'-(1H-tetrazol-5-yl)biphenyl-4-yl]methyl]-pyrimidin-4-(1H)-one], the IC50 was 169 nM.

For `CCCCc1nc(C)c(CCC(=O)O)c(=O)n1Cc1ccc(-c2ccccc2-c2nnn[nH]2)cc1` [Compound 25, 2-n-butyl-5-(2'-carboxyethyl)-6-methyl-3-[[2'-(1H-tetrazol-5-yl)-biphenyl-4-yl]methyl]-pyrimidin-4-(3H)-one], the IC50 was 9.43 nM.

`CCCCc1nc(=O)c(CCC(=O)O)c(C)n1Cc1ccc(-c2ccccc2-c2nnn[nH]2)cc1` [Compound 26, 2-n-butyl-5-(2'-carboxyethyl)-6-methyl-1-[[2'-(1H-tetrazol-5-yl)-biphenyl-4-yl]methyl]-pyrimidin-4-(1H)-one] was tested, and the IC50 was 42.8 nM.

With `CCCCc1nc(C)c(CCC(=O)N(CC)CC)c(=O)n1Cc1ccc(-c2ccccc2-c2nnn[nH]2)cc1` [Compound 27, 2-n-butyl-5-(2'-diethylaminocarbonylethyl)-6-methyl-3-[[2'-(1H-tetrazol-5-yl)biphenyl-4-yl]methyl]-pyrimidin-4-(3H )-one] the IC50 was 30.8 nM.

Work on `CCCCc1nc(C)c(CCC(=O)NCc2ccccc2)c(=O)n1Cc1ccc(-c2ccccc2-c2nnn[nH]2)cc1` [Compound 28, 2-n-butyl-5-(2'-benzylaminocarbonylethyl)-6-methyl-3-[[2'-(1H-tetrazol-5-yl)biphenyl-4-yl]methyl]-pyrimidin-4-(3H)-one] yielded an IC50 of 92.3 nM.

From patent US5869476A, “Pyrimidinone derivatives” (Boryung Pharmaceutical Co., Ltd., priority 1994, dated 1999)
